Key:
[1] = target: T1, M. thermoresistibile OtsA L319I (Mycolicibacterium thermoresistibile, UniProt G7CGT2, L319I); experiment: OtsA kinetic parameters, continuous colorimetric coupled assay (L319I); format: biochemical, Mycobacterium thermoresistibile
T1 sequence (G7CGT2 1-486 L319I): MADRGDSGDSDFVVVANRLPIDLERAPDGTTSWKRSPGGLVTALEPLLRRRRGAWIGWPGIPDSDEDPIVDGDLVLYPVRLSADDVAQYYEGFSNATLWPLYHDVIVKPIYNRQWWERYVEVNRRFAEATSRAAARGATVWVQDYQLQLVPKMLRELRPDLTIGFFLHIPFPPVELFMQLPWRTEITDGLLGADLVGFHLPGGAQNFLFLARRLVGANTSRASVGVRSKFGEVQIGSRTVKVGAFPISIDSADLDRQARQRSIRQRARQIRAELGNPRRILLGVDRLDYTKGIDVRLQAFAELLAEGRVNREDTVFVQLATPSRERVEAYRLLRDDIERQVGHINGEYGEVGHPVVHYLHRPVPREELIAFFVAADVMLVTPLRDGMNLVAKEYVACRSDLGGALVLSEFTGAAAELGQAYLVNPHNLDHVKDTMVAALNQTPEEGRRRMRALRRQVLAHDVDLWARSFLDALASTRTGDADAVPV

[2] = target: T2, M. thermoresistibile OtsA L319I, V363F, E367L (Mycolicibacterium thermoresistibile, UniProt G7CGT2, E367L/L319I/V363F); experiment: OtsA kinetic parameters, continuous colorimetric coupled assay (L319I, V363F, E367L); format: biochemical, Mycobacterium thermoresistibile; conditions: triple mutant
T2 sequence (G7CGT2 1-486 L319I/V363F/E367L): T1 sequence (G7CGT2 1-486 L319I)

MtrOtsA [3] = target: T3, MtrOtsA (Mycolicibacterium thermoresistibile, UniProt G7CGT2); experiment: biochemical
T3 sequence (G7CGT2 1-486): T1 sequence (G7CGT2 1-486 L319I)

[4] = target: T4, M. thermoresistibile OtsA V363F (Mycolicibacterium thermoresistibile, UniProt G7CGT2, V363F); experiment: OtsA kinetic parameters, continuous colorimetric coupled assay (V363F); format: biochemical, Mycobacterium thermoresistibile
T4 sequence (G7CGT2 1-486 V363F): T1 sequence (G7CGT2 1-486 L319I)

[5] = target: M. thermoresistibile OtsA wild type (Mycolicibacterium thermoresistibile, UniProt G7CGT2); experiment: OtsA kinetic parameters, continuous colorimetric coupled assay (wild type); format: biochemical, Mycobacterium thermoresistibile
MtrOtsA [6] = target: T3, MtrOtsA; conditions: ITC, 25°C, 60 μM OtsA, 1 mM ligand

Nc1ncnc2c1ncn2[C@@H]1O[C@H](COP(=O)(O)OP(=O)(O)O[C@H]2O[C@H](CO)[C@@H](O)[C@H](O)[C@H]2O)[C@@H](O)[C@H]1O [ADP-glucose] was tested, and the “fold increase in Km^app compared to the wild type” value [1] was roughly 3 fold, the “fold increase in Km^app compared to the wild type” value [2] was roughly 5 fold and the Kd (MtrOtsA [3]) was 27.2 ± 2.66 µM. The “fold increase in Km^app over the wild type” value [4] was roughly 2.5 fold.
Nc1nc2c(ncn2[C@@H]2O[C@H](COP(=O)(O)OP(=O)(O)O[C@H]3O[C@H](CO)[C@@H](O)[C@H](O)[C@H]3O)[C@@H](O)[C@H]2O)c(=O)[nH]1 [GDP-glucose] was tested, and the “turnover, fold lower than ADP-glucose” value [5] was 5 fold, the “fold increase in Km^app over the wild type” value [4] was roughly 2.5 fold and the heat of binding (MtrOtsA [6]) was “no observable heat of binding”.
